Laboratory results: ChEMBL document CHEMBL5727796, “Substituted purine derivative” (2020)

Target: T1, Toll-like receptor 7 (Homo sapiens, UniProt Q9NYK1)
T1 sequence (Q9NYK1 whole entry): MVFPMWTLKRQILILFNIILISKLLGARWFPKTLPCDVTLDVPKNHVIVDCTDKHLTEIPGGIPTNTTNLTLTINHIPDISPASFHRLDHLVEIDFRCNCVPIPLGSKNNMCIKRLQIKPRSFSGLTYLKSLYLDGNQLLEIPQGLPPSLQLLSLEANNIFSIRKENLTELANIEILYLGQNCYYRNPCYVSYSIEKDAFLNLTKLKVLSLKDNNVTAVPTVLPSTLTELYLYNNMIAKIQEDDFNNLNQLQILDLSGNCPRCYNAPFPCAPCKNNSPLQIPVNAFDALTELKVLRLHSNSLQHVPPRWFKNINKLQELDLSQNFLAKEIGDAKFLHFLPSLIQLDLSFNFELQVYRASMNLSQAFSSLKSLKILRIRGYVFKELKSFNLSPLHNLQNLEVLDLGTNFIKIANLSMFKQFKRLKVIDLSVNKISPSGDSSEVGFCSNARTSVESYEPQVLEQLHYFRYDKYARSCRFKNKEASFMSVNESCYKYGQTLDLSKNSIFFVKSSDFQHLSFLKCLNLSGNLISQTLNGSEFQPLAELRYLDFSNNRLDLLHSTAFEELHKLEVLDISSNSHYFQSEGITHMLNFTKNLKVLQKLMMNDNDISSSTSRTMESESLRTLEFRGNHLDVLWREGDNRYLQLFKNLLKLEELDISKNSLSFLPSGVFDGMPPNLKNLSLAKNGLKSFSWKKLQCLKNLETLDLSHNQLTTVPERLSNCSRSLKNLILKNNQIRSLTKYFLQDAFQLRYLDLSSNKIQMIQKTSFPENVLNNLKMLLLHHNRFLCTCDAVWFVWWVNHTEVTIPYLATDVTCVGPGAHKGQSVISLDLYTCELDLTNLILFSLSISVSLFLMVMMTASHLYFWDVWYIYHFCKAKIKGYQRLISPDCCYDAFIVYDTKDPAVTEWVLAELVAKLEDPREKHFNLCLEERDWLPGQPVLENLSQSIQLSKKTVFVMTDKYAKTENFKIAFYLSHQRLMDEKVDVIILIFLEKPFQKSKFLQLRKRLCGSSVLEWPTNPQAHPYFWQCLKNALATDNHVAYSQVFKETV
Test: Inhibition of the Activation Assay: As human TLR7 expressing cell line, HEK293 cell line was bought from IMGENEX Corporation (TLR7/NF-ηB/SEAPorter™ HEK293 cell), which is human embryonic kidney cell line and stably expresses full-length human TLR7 gene and secreted alkaline phosphatase (SEAP) reporter gene under the transcriptional control of an NE-ηB response element. The TLR7/NF-ηB/SEAPorter™ HEK293 cell was cultivated with DMEM containing 10% fetal bovine serum (FBS) and 10 μg/mL blasticidin S at 37° C. in the presence of 5% CO2.

Row | Structure (SMILES) | IC50 [nM]
1 | CCOc1nc(N)c2nc(-c3cncc(F)c3)n(Cc3ccc4c(c3)CN(C(=O)CN(C)C)C4)c2n1 | 460
2 | CCCCOc1nc(C)c2nc(-c3cncc(F)c3)n(Cc3ccc(CN(C)C)cc3)c2n1 | 200
3 | CCCCOc1nc(N)c2nc(-c3cccc(CN4CCOCC4)c3)n(Cc3ccccc3)c2n1 | 13900
4 | CCOc1nc(C)c2nc(-c3cncc(F)c3)n(Cc3ccc(C4CN5CCC4CC5)cc3)c2n1 (stereo not given) | 7
5 | COc1nc(C)c2nc(-c3cncc(F)c3)n(Cc3ccc(C4=CCN(C(=O)OC(C)(C)C)CC4)cc3F)c2n1 | 291
6 | CCOc1nc(N)c2nc(-c3cncc(F)c3)n(Cc3ccc(OCCN4CCN(C)CC4)nc3)c2n1 | 280
7 | COc1nc(C)c2nc(-c3cnccn3)n(Cc3ccc(C4CN5CCC4CC5)cc3F)c2n1 (stereo not given) | 43
8 | COc1nc(C)c2nc(-c3cncc(F)c3)n(Cc3ccc(C4CCN(C)C4)cc3)c2n1 (stereo not given) | 84
9 | CCOc1nc(N)c2nc(-c3cncc(F)c3)n(Cc3ccc(OCCN4CCN(C)CC4)cc3)c2n1 | 67
10 | CCOc1nc(N)c2nc(-c3cncc(F)c3)n(Cc3ccccc3OC(F)F)c2n1 | 2170
11 | CCOc1nc(C)c2nc(-c3cncc(F)c3)n(Cc3ccc(CN4CCN5CCC4C5)cc3)c2n1 (stereo not given) | 28
12 | COc1nc(C)c2nc(-c3cncc(F)c3)n(Cc3ccc(CC4CCN(C(=O)OC(C)(C)C)CC4)cc3F)c2n1 | 355
13 | CCOc1nc(C)c2nc(-c3cncc(F)c3)n(Cc3ccc(CN4CCN5CC[C@H]4C5)cc3)c2n1 | 63
14 | COc1nc(C)c2nc(-c3cncc(F)c3)n(Cc3ccc([C@H]4CN5CCC4CC5)cc3)c2n1 | 3
15 | CCCCOc1nc(N)c2nc(-c3ccc(CN4CCOCC4)cc3)n(Cc3ccccc3)c2n1 | 8200
16 | CCOc1nc(N)c2nc(-c3cncc(F)c3)n(Cc3ccc(C4CCN(C)C4)cc3)c2n1 (stereo not given) | 20
17 | COCCOc1nc(N)c2nc(-c3cncc(C)c3)n(Cc3ccccc3)c2n1 | 9100
18 | CCOc1nc(N)c2nc(-c3cncc(F)c3)n(Cc3ccc(CN4CCN5CCC4C5)cc3)c2n1 (stereo not given) | 51
19 | CCOc1nc(N)c2nc(-c3cncc(F)c3)n(Cc3ccc(F)c(OCCN4CCCC4)c3)c2n1 | 620
20 | CCCCCc1nc(N)c2nc(-c3cncc(F)c3)n(Cc3ccccc3)c2n1 | 9500
21 | CCCCOc1nc(N)c2nc(-c3ccc(OCCCN4CCOCC4)cc3)n(Cc3ccccc3)c2n1 | 4100
22 | CCOc1nc(C)c2nc(-c3cncc(F)c3)n(Cc3ccc(CN4C[C@@H]5C[C@H]4CN5CC)nc3)c2n1 | 230
23 | COc1nc(C)c2nc(-c3cccnc3)n(Cc3ccc(O[C@@H]4CN5CCC4CC5)cc3F)c2n1 | 70
24 | CCOc1nc(C)c2nc(-c3cncc(F)c3)n(Cc3cnn(C)c3)c2n1 | 2680

Next, values leading:

Row | IC50 [nM] | Structure (SMILES)
25 | 420 | CCOc1nc(N)c2nc(-c3cncc(F)c3)n(Cc3ccc(F)c(OCCN(C)C)c3)c2n1
26 | 5800 | CCOc1nc(N)c2nc(-c3cncc(F)c3)n(Cc3cc(OCCN(C)C)ccn3)c2n1
27 | 1300 | CCOc1nc(N)c2nc(-c3cncc(F)c3)n(Cc3cc(CN(C)C)no3)c2n1
28 | 60 | CCOc1nc(N)c2nc(-c3cncc(F)c3)n(Cc3cccc(OCCCN(C)C)c3)c2n1
29 | 89 | CCOc1nc(N)c2nc(-c3cncc(F)c3)n(Cc3ccc(OCCCN(C)C)cc3)c2n1
30 | 620 | CCOc1nc(N)c2nc(-c3cncc(F)c3)n(Cc3ccc(OCCN4CCCC4)nc3)c2n1
31 | 810 | CCOc1nc(N)c2nc(-c3cncc(F)c3)n(Cc3ccc(OCCN(C)C)nc3)c2n1
32 | 99 | CCOc1nc(N)c2nc(-c3cncc(F)c3)n(Cc3ccc(OCCN(C)C)cc3)c2n1
33 | 77 | CCOc1nc(N)c2nc(-c3cncc(F)c3)n(Cc3cccc(OCCN(C)C)c3)c2n1
34 | 1800 | CCOc1nc(N)c2nc(-c3cncc(F)c3)n(Cc3ccnc(OCCN(C)C)c3)c2n1
35 | 1430 | CCOc1nc(N)c2nc(-c3cncc(F)c3)n(Cc3cccc(OCCN(C)C)n3)c2n1
